A value given as a limit tells only on which side of the number the result lay.

The target in data set [1] is CYP3A4 (Homo sapiens, UniProt P08684). As to the kind of experiment: Midazolam 1'-hydroxylation. Format: in vitro ADME. The following applies: for % inhibition (10 µM) of CYP3A4, class / % inhibition (10 µM) of CYP3A4 / IC50: midazolam hydroxylation; for % inhibition (10 µM) of CYP3A4: average of triplicates ± S.D.; for IC50: read-out: IC50 CYP3A4.
Another data set deals with CYP2D6 (Homo sapiens, UniProt P10635). Briefly: Dextromethorphan demethylation. Format: in vitro ADME.
Chain of CYP2D6 (P10635 whole entry): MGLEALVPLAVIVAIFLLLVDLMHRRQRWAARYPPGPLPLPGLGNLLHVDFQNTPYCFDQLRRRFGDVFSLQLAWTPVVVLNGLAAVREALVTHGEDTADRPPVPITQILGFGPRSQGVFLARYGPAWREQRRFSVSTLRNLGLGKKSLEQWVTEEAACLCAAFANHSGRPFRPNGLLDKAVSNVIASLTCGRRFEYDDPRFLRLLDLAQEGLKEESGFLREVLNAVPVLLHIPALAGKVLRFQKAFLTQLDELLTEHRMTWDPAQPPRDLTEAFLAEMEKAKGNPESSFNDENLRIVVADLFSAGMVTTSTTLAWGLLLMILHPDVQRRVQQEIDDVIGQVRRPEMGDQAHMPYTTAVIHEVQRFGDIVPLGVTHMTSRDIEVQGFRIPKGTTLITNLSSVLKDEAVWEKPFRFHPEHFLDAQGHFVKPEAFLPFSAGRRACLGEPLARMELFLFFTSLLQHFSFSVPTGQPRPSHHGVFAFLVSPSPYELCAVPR
Data set [2] has as its system CYP3A4. Conditions: cited from earlier work.
Data set [3] deals with tamoxifen 4-hydroxylation (4-OH TAM formation) by human liver microsomes. As to the kind of experiment: in vitro. The following applies: female, pH 7.4.
For data set [4], the system named is tamoxifen N-demethylation (N-desmethyl TAM formation) by human liver microsomes. As to the kind of experiment: in vitro. The following applies: female, pH 7.4.
The test system of data set [5] is tamoxifen α-hydroxylation (α-OH TAM formation) by human liver microsomes. Briefly: in vitro. The following applies: female, pH 7.4.

Chain of CYP3A4 (Homo sapiens, UniProt P08684) (P08684 whole entry): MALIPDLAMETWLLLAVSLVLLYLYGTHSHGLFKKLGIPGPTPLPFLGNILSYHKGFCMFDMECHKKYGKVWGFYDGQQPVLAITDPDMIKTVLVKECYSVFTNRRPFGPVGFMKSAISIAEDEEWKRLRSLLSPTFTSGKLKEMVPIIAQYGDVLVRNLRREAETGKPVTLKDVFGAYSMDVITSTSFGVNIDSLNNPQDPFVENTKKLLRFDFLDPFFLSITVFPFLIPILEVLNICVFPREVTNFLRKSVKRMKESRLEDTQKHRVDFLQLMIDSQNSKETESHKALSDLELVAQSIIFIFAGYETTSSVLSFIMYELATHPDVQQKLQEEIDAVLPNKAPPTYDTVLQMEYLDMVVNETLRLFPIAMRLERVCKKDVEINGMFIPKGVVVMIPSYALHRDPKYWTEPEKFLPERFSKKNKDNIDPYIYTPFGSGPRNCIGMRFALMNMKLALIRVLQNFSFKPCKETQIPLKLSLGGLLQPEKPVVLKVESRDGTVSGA

In the case of “25-O-acetylcimigenol-3-O-β-xylopyranoside [Compound 8]”, the “% inhibition (10 µM) of CYP3A4, class” value at CYP3A4 [1] is on record as “N/A (N/A, Not active = < 50% inhibition at 10 µM)”. In the case of `CC(=O)O[C@H]1[C@H](O[C@H]2CC[C@]34C[C@]35C[C@@H](OC(C)=O)[C@]3(C)[C@H]6[C@H](C)C[C@@]7(O[C@H]6C[C@@]3(C)[C@@H]5CC[C@H]4C2(C)C)O[C@H](O)[C@@]2(C)O[C@@H]72)OC[C@@H](O)[C@@H]1O` [Compound 14, 2’-O-acetyl-Actein], the “% inhibition (10 µM) of CYP3A4, class” value at CYP3A4 [1] is on record as “N/A (N/A, Not active = < 50% inhibition at 10 µM)”.

Take `CC(=O)O[C@@H]1C[C@@]23C[C@@]24CC[C@H](O[C@@H]2OC[C@@H](O)[C@H](O)[C@H]2O)C(C)(C)[C@@H]4CC[C@H]3[C@]2(C)C[C@@H]3O[C@]4(C[C@@H](C)[C@@H]3[C@@]12C)OC[C@@]1(C)O[C@@H]41` [Compound 4, 26-deoxyactein]: on CYP3A4 [1], the “activity against CYP3A4 (in words)” value is “inactive” and the “% inhibition (10 µM) of CYP3A4, class” value is recorded as “N/A (N/A, Not active = < 50% inhibition at 10 µM)”. The “activity against CYP2D6 (in words)” value on CYP2D6 was “inactive”. On to “1-α-hydroxycimigenol-3-O-β-D-xylopyranoside [Compound 21]”, for which the “% inhibition (10 µM) of CYP3A4, class” value at CYP3A4 [1] was “N/A (N/A, Not active = < 50% inhibition at 10 µM)”. The same measure, in the same setting: the result for “25-anhydrocimigenol-3-O-β-arabinopyranoside [Compound 10]” reads “N/A (N/A, Not active = < 50% inhibition at 10 µM)”. By IC50 is commonly meant the concentration that gives 50% inhibition. Regarding `C=C(C)[C@@H]1O[C@@]23O[C@@H]1C[C@@H](C)[C@@H]2[C@@]1(C)[C@H](OC(C)=O)C[C@@]24C[C@@]25CC[C@H](O[C@@H]2OC[C@@H](O)[C@H](O)[C@H]2O)C(C)(C)[C@@H]5CC[C@H]4[C@]1(C)[C@H]3O` [Compound 7, Cimiracemoside K], at CYP3A4 [1], the “% inhibition (10 µM) of CYP3A4” value came to 85.2±0.3% and the IC50 was determined as 3.8 ± 0.5 µM. For “23-O-acetylshengmanol-3-β-D-xylopyranoside [Compound 12]”, the “CYP3A4 inhibition (in words)” value with CYP3A4 [2] was “weak inhibitor”.

Consider “7-β-hydroxycimigenol aglycone [Compound 20]”, for which the “% inhibition (10 µM) of CYP3A4” value on CYP3A4 [1] is 64.9±1.1%. As a reminder, the inhibition is the change of the read-out against control, counted positive when it falls. High values mean a response far below the control, low ones a response near the control. For the compound `COc1ccc2c(c1OC)CN(C)CCc1cc3c(cc1C(=O)C2)OCO3` [Allocryptopine, allocryptopine], the inhibition at 20 min, 10 µM is 57.9 ± 4.3% in data set [3], 16.8 ± 2.8% in data set [4] and less than 10% in data set [5]. As for `C[C@H](CC(=O)[C@@H]1OC1(C)C)[C@H]1C(=O)C[C@@]2(C)C3=CC[C@H]4C(C)(C)[C@@H](O[C@@H]5OC[C@@H](O)[C@H](O)[C@H]5O)CC[C@@]45C[C@@]35[C@@H](O)C[C@]12C` [Compound 17, Cimicifugoside H-1], the “% inhibition (10 µM) of CYP3A4, class” value on CYP3A4 [1] is reported as “N/A (N/A, Not active = < 50% inhibition at 10 µM)”. A word on the Ki: it is the equilibrium dissociation constant of an inhibitor or competing ligand from its target. `CN1CCc2cc3c(cc2C(=O)Cc2ccc4c(c2C1)OCO4)OCO3` [Protopine, protopine] gave a Ki at CYP2D6 of 0.078 µM. Take `CC(=O)O[C@@H]1C[C@@]23C[C@@]24CC[C@H](O[C@@H]2OC[C@@H](O)[C@H](O)[C@H]2O)C(C)(C)[C@@H]4CC[C@H]3[C@]2(C)C[C@@H]3O[C@@]4(C[C@@H](C)[C@@H]3[C@@]12C)OC[C@@]1(C)O[C@@H]41` [Compound 1, 23-epi-26-deoxyactein]: on CYP3A4 [1], the “activity against CYP3A4 (in words)” value is “inactive”. Further, the “activity against CYP2D6 (in words)” value on CYP2D6 was “inactive”.

As to “25-anhydrocimigenol-3-O-β-xylopyranoside [Compound 3]”, at CYP3A4 [1], the “% inhibition (10 µM) of CYP3A4, class” value is recorded as “N/A (N/A, Not active = < 50% inhibition at 10 µM)”. As for `CC(=O)O[C@@H]1C[C@@]23C[C@@]24CC[C@H](O[C@@H]2OC[C@@H](O)[C@H](O)[C@H]2O)C(C)(C)[C@@H]4CC[C@H]3[C@]2(C)C[C@@H]3O[C@]4(C[C@@H](C)[C@@H]3[C@@]12C)OC(=O)[C@]1(C)O[C@H]41` [Compound 5, Cimiracemoside P], the “% inhibition (10 µM) of CYP3A4, class” value on CYP3A4 [1] is listed as “N/A (N/A, Not active = < 50% inhibition at 10 µM)”. Same read-out and setting: next, “25-O-acetylcimigenol-3-O-α-arabinopyranoside [Compound 9]”: “N/A (N/A, Not active = < 50% inhibition at 10 µM)”. With `C=C(C)[C@@H]1O[C@@]23O[C@@H]1C[C@@H](C)[C@@H]2[C@@]1(C)[C@H](OC(C)=O)C[C@@]24C[C@@]25CC[C@H](O[C@@H]2OC[C@H](O)[C@H](O)[C@H]2O)C(C)(C)[C@@H]5CC[C@H]4[C@]1(C)[C@H]3O` [Compound 6, Cimiracemoside J], the “% inhibition (10 µM) of CYP3A4, class” value at CYP3A4 [1] is “N/A (N/A, Not active = < 50% inhibition at 10 µM)”. Still for that read-out and setting: the result for “1-α-hydroxycimigenol-3-O- α-L-arabinopyranoside [Compound 19]” reads “N/A (N/A, Not active = < 50% inhibition at 10 µM)”. Regarding `CC(=O)O[C@@H]1C[C@@]23C[C@@]24CC[C@H](O[C@@H]2OC[C@@H](O)[C@H](O)[C@H]2O)C(C)(C)[C@@H]4CC[C@H]3[C@]2(C)C[C@@H]3O[C@]4(C[C@@H](C)[C@@H]3[C@@]12C)O[C@H](O)[C@@]1(C)O[C@@H]41` [Compound 11, Actein (R,S)], at CYP3A4 [1], the “activity against CYP3A4 (in words)” value is “inactive” and the “% inhibition (10 µM) of CYP3A4, class” value was “N/A (N/A, Not active = < 50% inhibition at 10 µM)”. Moreover, the “activity against CYP2D6 (in words)” value at CYP2D6 is “inactive”. For `CC(=O)O[C@@H]1CO[C@@H](O[C@H]2CC[C@]34C[C@]35C[C@@H](OC(C)=O)[C@]3(C)[C@H]6[C@H](C)C[C@]7(OC(O)[C@]8(C)O[C@H]78)O[C@H]6C[C@@]3(C)[C@@H]5CC[C@H]4C2(C)C)[C@H](O)[C@H]1O` (stereo partly drawn) [Compound 15, Cimiracemoside O], on CYP3A4 [1], the “% inhibition (10 µM) of CYP3A4” value worked out at 74.8±0.1% and the IC50 was found to be 5.1 ± 0.4 µM. “25-O-acetyl-7-β-hydroxycimigenol-3-O-β-xylopyranoside [Compound 22]”: the “% inhibition (10 µM) of CYP3A4” value on CYP3A4 [1] was found to be 61.8±0.2%.

With `CC(=O)O[C@H]1CO[C@@H](O[C@H]2CC[C@]34C[C@]35CC[C@]3(C)[C@@H]([C@H](C)C[C@@H](OC(C)=O)[C@@H]6OC6(C)C)C(=O)[C@H](O)[C@@]3(C)[C@@H]5CC[C@H]4C2(C)C)[C@H](O)[C@H]1O` [Compound 16, Cimiracemoside L], at CYP3A4 [1], the “% inhibition (10 µM) of CYP3A4” value is recorded as 94.2±0.3% and the IC50 came to 2.4 ± 0.2 µM. As to `CC(=O)O[C@@H]1C[C@@]23C[C@@]24CC[C@H](O[C@@H]2OC[C@H](O)[C@H](O)[C@H]2O)C(C)(C)[C@@H]4CC[C@H]3[C@]2(C)C[C@@H]3O[C@]4(C[C@@H](C)[C@@H]3[C@@]12C)OC[C@]1(C)O[C@H]41` [Compound 13, Cimiracemoside N], the “% inhibition (10 µM) of CYP3A4, class” value at CYP3A4 [1] is “N/A (N/A, Not active = < 50% inhibition at 10 µM)”.

The values above are taken from publication PMC3565011 (Xenobiotica; the fate of foreign compounds in biological …, 2011).
